Source: US8884030B2, “Inhibitors of Flaviviridae viruses” (priority 2010, dated 2014)

The compounds below were run on human hepatoma Huh-7 cell line harboring a HCV replicon (assay: HCV replicon assay (inhibition of viral replication, luciferase)). Details: Hepatitis C virus, 72 h; 2 μM; Huh-7 HCV replicon cells, 3 days incubation; inhibition of viral replication; read-out: % inhibition at 2 μM.
Type: cell-based
Method: The anti-HCV activity of the compounds of this invention was tested in a human hepatoma Huh-7 cell line harboring a HCV replicon. The assay comprised the following steps:
Step 1: Compound Preparation and Serial Dilution.
Serial dilution was performed in 100% DMSO in a 384-well plate. A solution containing a compound at 225-fold concentration of the starting final serial dilution concentration was prepared in 100% DMSO and 15 uL added to the pre-specified wells in column 3 or 13 of a polypropylene 384-well plate. The rest of the 384-well plate was filled with 10 uL 100% DMSO except for columns 23 and 24, where 10 uL of 500 uM a HCV protease inhibitor (ITMN-191) in 100% DMSO was added. The HCV protease inhibitor was used a control of 100% inhibition of HCV replication. The plate was then placed on a Biomek FX Workstation to start the serial dilution. The serial dilution was performed for ten cycles of 3-fold dilution from column 3 to 12 or from column 13 to 22.
Step 2: Cell Culture Plate Preparation and Compound Addition
To each well of a black polypropylene 384-well plate, 90 μL of cell media containing 1600 suspended Huh-7 HCV replicon cells was added with a Biotek uFlow Workstation. A volume of 0.4 μL of the compound solution was transferred from the serial dilution plate to the cell culture plate on a Biomek FX Workstation. The DMSO concentration in the final assay condition was 0.44%. The plates were incubated for 3 days at 37° C. with 5% CO2 and 85% humidity.
Step 3: Detection of Cytotoxicity and Inhibition of Viral Replication
a) Assessment of cytotoxicity: The media in the 384-well cell culture plate was aspirated with a Biotek EL405 plate-washer. A volume of 50 μL of a solution containing 400 nM Calcein AM in 100% PBS was added to each well of the plate with a Biotek uFlow Workstation. The plate was incubated for 30 minutes at room temperature before the fluorescence signal ([…]) was measured with a Perkin Elmer Envision Plate Reader.
b) Assessment of inhibition of viral replication: The calcein-PBS solution in the 384-well cell culture plate was aspirated with a Biotek EL405 plate-washer. A volume of 20 μL of Dual-Glo luciferase buffer (Promega, Dual-Glo Luciferase Assay Reagent, cat. #E298B) was added to each well of the plate with a Biotek uFlow Workstation. The plate was incubated for 10 minutes at room temperature. A volume of 20 μL of a solution containing 1:100 mixture of Dual-Glo Stop & Glo substrate(Promega, Dual-Glo Luciferase Assay Reagent, cat. #E313B) and Dual-Glo Stop & Glo buffer (Promega, Dual-Glo Luciferase Assay Reagent, cat. #E314B) was then added to each well of the plate with a Biotek uFlow Workstation. The plate was incubated at room temperature for 10 minutes before the luminescence signal was measured with a Perkin Elmer Envision Plate Reader.
The percent cytotoxicity was determined by calcein AM conversion to fluorescent product. The average fluorescent signal from the DMSO control wells were defined as 100% nontoxic. The individual fluorescent signal from testing compound treated well was divided by the average signal from DMSO control wells and then multiplied by 100% to get the percent viability. The percent anti-HCV replication activity was determined by the luminescence signal from the testing well compared to DMSO controls wells. The background signal was determined by the average luminescence signal from the HCV protease inhibitor treated wells and was subtracted from the signal from the testing wells as well as the DMSO control wells. Following 3-fold serial dilutions, the EC50 and CC50 values were calculated by fitting % inhibition at each concentration to the following equation: % inhibition=100%[(EC50/[l])^b+1]
Where b is Hill's coefficient. See, for reference, Hill, A. V., The Possible Effects of the Aggregation of the Molecules of Hæmoglobin on its Dissociation Curves, J. Physiol. 40: iv-vii. (1910). […]

Structure (SMILES)	inhibition at 2 µM
CC(C)(C)C#Cc1cc(N(C(=O)[C@H]2CC[C@H](C)CC2)[C@H]2CCN(C(=O)OC3CCN(C(=O)OC(C)(C)C)CC3)C2)c(C(=O)O)s1 [Compound 39, 4-{3-(S)-[[2-carboxy-5-(3,3-dimethyl-but-1-ynyl)-thiophen-3-yl]-(4-trans-methyl-cyclohexanecarbonyl)-amino]-pyrrolidine-1-carbonyloxy}-piperidine-1-carboxylic acid tert-butyl ester]	98.8%
CC(C)(C)C#Cc1cc(N(C(=O)[C@H]2CC[C@H](C)CC2)[C@H]2CCN(C(=O)OC3CCNCC3)C2)c(C(=O)O)s1 [Compound 40, 3-(S)-[[2-carboxy-5-(3,3-dimethyl-but-1-ynyl)-thiophen-3-yl]-(4-trans-methyl-cyclohexanecarbonyl)-amino]-pyrrolidine-1-carboxylic acid piperidin-4-yl ester]	98.6%
CC(C)(C)C#Cc1cc(N(C(=O)[C@H]2CC[C@H](C)CC2)[C@H]2CCN(C(=O)OC3CCOCC3)C2)c(C(=O)O)s1 [Compound 41, 3-(S)-[[2-carboxy-5-(3,3-dimethyl-but-1-ynyl)-thiophen-3-yl]-(4-trans-methyl-cyclohexanecarbonyl)-amino]-pyrrolidine-1-carboxylic acid tetrahydro-pyran-4-yl ester]	99.9%
CC(C)(C)C#Cc1cc(N(C(=O)[C@H]2CC[C@H](C)CC2)[C@H]2CCN(C(=O)O[C@@H]3CCOC3)C2)c(C(=O)O)s1 [Compound 42, 3-(S)-[[2-carboxy-5-(3,3-dimethyl-but-1-ynyl)-thiophen-3-yl]-(4-trans-methyl-cyclohexanecarbonyl)-amino]-pyrrolidine-1-carboxylic acid tetrahydro-furan-3-(R)-yl ester]	99.9%
CC(C)(C)C#Cc1cc(N(C(=O)[C@H]2CC[C@H](C)CC2)[C@H]2CCN(C(=O)O[C@H]3CCNC3=O)C2)c(C(=O)O)s1 [Compound 43, 3-(S)-[[2-carboxy-5-(3,3-dimethyl-but-1-ynyl)-thiophen-3-yl]-(4-trans-methyl-cyclohexanecarbonyl)-amino]-pyrrolidine-1-carboxylic acid 2-oxo-pyrrolidin-3-(R)-yl ester]	96.2%
CC(C)(C)C#Cc1cc(N(C(=O)[C@H]2CC[C@H](C)CC2)C2CCC(NC(=O)OC3CCN(C(=O)OC(C)(C)C)CC3)CC2)c(C(=O)O)s1 (stereo partly drawn) [Compound 44, 4-{4-[[2-carboxy-5-(3,3-dimethyl-but-1-ynyl)-thiophen-3-yl]-(4-trans-methyl-cyclohexanecarbonyl)-amino]-cyclohexylcarbamoyloxy}-piperidine-1-carboxylic acid tert-butyl ester]	100%
CC(C)(C)C#Cc1cc(N(C(=O)[C@H]2CC[C@H](C)CC2)C2CCC(NC(=O)OC3CCNCC3)CC2)c(C(=O)O)s1 (stereo partly drawn) [Compound 45, 5-(3,3-dimethyl-but-1-ynyl)-3-{(4-trans-methyl-cyclohexanecarbonyl)-[4-(piperidin-4-yloxycarbonylamino)-cyclohexyl]-amino}-thiophene-2-carboxylic acid]	100%
CC(C)(C)C#Cc1cc(N(C(=O)[C@H]2CC[C@H](C)CC2)C2CCC(NC(=O)O[C@@H]3CCCN(C(=O)OC(C)(C)C)C3)CC2)c(C(=O)O)s1 (stereo partly drawn) [Compound 46, 3-(R)-{4-[[2-carboxy-5-(3,3-dimethyl-but-1-ynyl)-thiophen-3-yl]-(4-trans-methyl-cyclohexanecarbonyl)-amino]-cyclohexylcarbamoyloxy}-piperidine-1-carboxylic acid tert-butyl ester]	97%
CC(C)(C)C#Cc1cc(N(C(=O)[C@H]2CC[C@H](C)CC2)C2CCC(NC(=O)O[C@@H]3CCCNC3)CC2)c(C(=O)O)s1 (stereo partly drawn) [Compound 47, 5-(3,3-dimethyl-but-1-ynyl)-3-{(4-trans-methyl-cyclohexanecarbonyl)-[4-(piperidin-3-(R)-yloxycarbonylamino)-cyclohexyl]-amino}-thiophene-2-carboxylic acid]	99.9%
CC(C)(C)C#Cc1cc(N(C(=O)[C@H]2CC[C@H](C)CC2)C2CCC(NC(=O)O[C@@H]3CCOC3)CC2)c(C(=O)O)s1 (stereo partly drawn) [Compound 48, 5-(3,3-dimethyl-but-1-ynyl)-3-{(4-trans-methyl-cyclohexanecarbonyl)-[4-(tetrahydro-furan-3-(R)-yloxycarbonylamino)-cyclohexyl]-amino}-thiophene-2-carboxylic acid]	100%
CC(C)(C)C#Cc1cc(N(C(=O)[C@H]2CC[C@H](C)CC2)C2CCC(NC(=O)O[C@H]3CNC(=O)C3)CC2)c(C(=O)O)s1 (stereo partly drawn) [Compound 49, 5-(3,3-dimethyl-but-1-ynyl)-3-{(4-trans-methyl-cyclohexanecarbonyl)-[4-(5-oxo-pyrrolidin-3-(S)-yloxycarbonylamino)-cyclohexyl]-amino}-thiophene-2-carboxylic acid]	99.2%
CC(C)(C)C#Cc1cc(N(C(=O)[C@H]2CC[C@H](C)CC2)C2CCC(NC(=O)O[C@@H]3CCNC3=O)CC2)c(C(=O)O)s1 (stereo partly drawn) [Compound 50, 5-(3,3-dimethyl-but-1-ynyl)-3-{(4-trans-methyl-cyclohexanecarbonyl)-[4-(2-oxo-pyrrolidin-3-(R)-yloxycarbonylamino)-cyclohexyl]-amino}-thiophene-2-carboxylic acid]	99.9%
CC(C)(C)C#Cc1cc(N(C(=O)[C@H]2CC[C@H](C)CC2)C2CCN(C(=O)O[C@@H]3CCCN(C(=O)OC(C)(C)C)C3)CC2)c(C(=O)O)s1 [Compound 51, Boc protected 4-[[2-carboxy-5-(3,3-dimethyl-but-1-ynyl)-thiophen-3-yl]-(4-trans-methyl-cyclohexanecarbonyl)-amino]-piperidine-1-carboxylic acid piperidin-3-(R)-yl ester]	85.5%
CC(C)(C)C#Cc1cc(N(C(=O)[C@H]2CC[C@H](C)CC2)C2CCN(C(=O)O[C@@H]3CCCNC3)CC2)c(C(=O)O)s1 [Compound 52, 4-[[2-carboxy-5-(3,3-dimethyl-but-1-ynyl)-thiophen-3-yl]-(4-trans-methyl-cyclohexanecarbonyl)-amino]-piperidine-1-carboxylic acid piperidin-3-(R)-yl ester]	93.5%
CC(C)(C)C#Cc1cc(N(C(=O)[C@H]2CC[C@H](C)CC2)C2CCN(C(=O)O[C@@H]3CCOC3)CC2)c(C(=O)O)s1 [Compound 53, 4-[[2-carboxy-5-(3,3-dimethyl-but-1-ynyl)-thiophen-3-yl]-(4-trans-methyl-cyclohexanecarbonyl)-amino]-piperidine-1-carboxylic acid tetrahydro-furan-3-(R)-yl ester]	99.9%
CC(C)(C)C#Cc1cc(N(C(=O)[C@H]2CC[C@H](C)CC2)C2CCN(C(=O)OC3CCOCC3)CC2)c(C(=O)O)s1 [Compound 54, 4-[[2-carboxy-5-(3,3-dimethyl-but-1-ynyl)-thiophen-3-yl]-(4-trans-methyl-cyclohexanecarbonyl)-amino]-piperidine-1-carboxylic acid tetrahydro-pyran-4-yl ester]	99.8%
CC(C)(C)C#Cc1cc(N(C(=O)[C@H]2CC[C@H](C)CC2)C2CCN(C(=O)O[C@H]3CNC(=O)C3)CC2)c(C(=O)O)s1 [Compound 55, 4-[[2-carboxy-5-(3,3-dimethyl-but-1-ynyl)-thiophen-3-yl]-(4-trans-methyl-cyclohexanecarbonyl)-amino]-piperidine-1-carboxylic acid 5-oxo-pyrrolidin-3-(R)-yl ester]	87.9%
